# Assay results published in the supplement of paper PMC10307832.
# Legend:
# Assay in all cases: relative viability (nuclei count vs DMSO), 5 days (fraction); higher = more cells survive
# Bicalutamide + Alpelisib = compound: CC(O)(CS(=O)(=O)c1ccc(F)cc1)C(=O)Nc1ccc(C#N)c(C(F)(F)F)c1 [Bicalutamide] + Cc1nc(NC(=O)N2CCC[C@H]2C(N)=O)sc1-c1ccnc(C(C)(C)C(F)(F)F)c1 [Alpelisib] (partner 2 µM)
# How it was run: (§1)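 Values are medians from duplicate plates. Each reflects relative viability, defined as the nuclei count of treated wells over that of vehicle wells. Lung cancer cell lines in 1536-well plates were pin-tool dosed one day after seeding with one drug alone or with a fixed anchor-drug dose plus five library-drug doses (not always all listed) in √10 steps, then fixed, stained and imaged at 4× after 5 days.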
# [1] = compound: C(C(=O)C(=O)O)Br [Bromopyruvate] + CC(=O)c1c(C)c2cnc(Nc3ccc(N4CCNCC4)cn3)nc2n(C2CCCC2)c1=O [Palbociclib] (partner 0.5 µM)
# How it was run: as §1
# [2] = compound: CC(O)(CS(=O)(=O)c1ccc(F)cc1)C(=O)Nc1ccc(C#N)c(C(F)(F)F)c1 [Bicalutamide] + Nc1ncn([C@H]2C[C@H](O)[C@@H](CO)O2)c(=O)n1 [Decitabine] (partner 2 µM)
# How it was run: as §1
# [3] = compound: C(C(=O)C(=O)O)Br [Bromopyruvate] + Nc1nc2[nH]cc(CCc3ccc(C(=O)N[C@@H](CCC(=O)O)C(=O)O)cc3)c2c(=O)[nH]1 [Pemetrexed] (partner 0.2 µM)
# How it was run: as §1
Cell Line,relative viability (Bicalutamide + Alpelisib; first compound 0.08 µM),relative viability (Bicalutamide + Alpelisib; first compound 0.253 µM),relative viability (Bicalutamide + Alpelisib; first compound 0.8 µM),relative viability (Bicalutamide + Alpelisib; first compound 2.53 µM),relative viability ([1]; first compound 1 µM),relative viability ([1]; first compound 3.162 µM),relative viability ([1]; first compound 10 µM),relative viability ([1]; first compound 31.62 µM),relative viability ([1]; first compound 100 µM),relative viability ([2]; first compound 0.08 µM),relative viability ([2]; first compound 0.253 µM),relative viability ([2]; first compound 0.8 µM),relative viability ([2]; first compound 2.53 µM),relative viability ([3]; first compound 1 µM),relative viability ([3]; first compound 3.162 µM),relative viability ([3]; first compound 10 µM),relative viability ([3]; first compound 31.62 µM),relative viability ([3]; first compound 100 µM)
NCI-H2170,0.834,0.767,0.853,0.842,0.365,0.421,0.389,0.396,0.411,0.442,0.441,0.515,0.496,0.277,0.27,0.249,0.258,0.626
NCI-H520,1.08,0.945,1.1,0.808,0.235,0.209,0.228,0.232,0.267,0.576,0.52,0.646,0.51,0.64,0.713,0.691,0.598,0.629
HCC-15,0.935,0.897,0.985,0.86,0.654,0.677,0.846,0.771,0.741,0.63,0.595,0.74,0.584,0.241,0.231,0.227,0.229,0.234
LCLC-103H,1.04,0.907,1.1,1.02,0.505,0.486,0.455,0.415,0.528,0.714,0.717,0.717,0.756,0.468,0.465,0.472,0.446,0.48
NCI-H460,0.52,0.429,0.685,0.506,0.161,0.247,0.148,0.196,0.186,0.55,0.468,0.598,0.484,0.0598,0.078,0.0595,0.0647,0.0655
EPLC-272H,1.05,1.03,0.951,0.809,0.321,0.372,0.386,0.31,0.362,0.384,0.373,0.382,0.342,0.367,0.259,0.334,0.251,0.432
